“Also recorded” adds a separate entry of the source.
Columns and labels:
Format in all cases: physicochemical
[1] = Stability of crystalline form in tablet formulation process (XRPD before and after); conditions: tablets per Table 7 and Table 8, XRPD
Procedure: According to the formulation and process in Table 7 and Table 8, the tablets were prepared with an appropriate amount of Form CSII of the present disclosure. XRPD was tested before and after formulation.
According to the formulation and process in Table 7 and Table 8, the tablets were prepared with an appropriate amount of Form CSIII of the present disclosure. XRPD was tested before and after formulation.
According to the formulation and process in Table 7 and Table 8, the tablets were prepared with an appropriate amount of Form CSIV of the present disclosure. XRPD was tested before and after formulation.

[2] = Hygroscopicity by DVS (0% RH-95% RH-0% RH at 25° C.); conditions: for Weight gain relative to that of the prior art / Weight gain at 80% RH: 80% RH; for Weight gain at 80% RH: DVS; for Weight gain at 80% RH / Hygroscopicity class: 25° C.; for Crystalline state after the DVS test: XRPD before and after DVS; for Hygroscopicity class: weight gain at 80% RH
Procedure: DVS was measured via an SMS (Surface Measurement Systems Ltd.) intrinsic DVS instrument.
Parameters for DVS method are as follows: • Temperature: 25° C. • Gas and flow rate: nitrogen, 200 mL/min • RH range: 0% RH to 95% RH • ^1H NMR were collected from a Bruker Avance II DMX 400M HZ NMR spectrometer. 1-5 mg of sample was weighed and dissolved in 0.5 mL of deuterated dimethyl sulfoxide to obtain a solution with a concentration of 2-10 mg/mL.
Certain amounts of Form CSII of the present disclosure and the prior art amorphous form were sampled for hygroscopicity tests using DVS instrument. The weight change at each relative humidity was recorded during the cycle of 0% RH-95% RH-0% RH at 25° C.
Description and definition of hygroscopicity (general notice 9103 drug hygroscopicity test guidelines in 2020 edition of Chinese Pharmacopoeia, experimental condition: 25±1° C., 80±2% RH):
Certain amounts of Form CSIII of the present disclosure and the prior art amorphous form were sampled for hygroscopicity tests using DVS instrument. The weight change at each relative humidity was recorded during the cycle of 0% RH-95% RH-0% RH at 25° C.
Certain amounts of Form CSIV of the present disclosure and the prior art amorphous form were sampled for hygroscopicity tests using DVS instrument. The weight change at each relative humidity was recorded during the cycle of 0% RH-95% RH-0% RH at 25° C.

[3] = Grinding stability (manual grinding 5 minutes in a mortar, XRPD); conditions: ground manually 5 minutes in a mortar
Procedure: Form CSII was grounded manually for 5 minutes in a mortar. XRPD was tested before and after the grinding.
Form CSIII was grounded manually for 5 minutes in a mortar. XRPD was tested before and after the grinding.
Form CSIV was grounded manually for 5 minutes in a mortar. XRPD was tested before and after the grinding.

[4] = Light stability (Chinese Pharmacopoeia method, purity by UPLC); conditions: light not less than 1.2×10^6 lux-hr, near-UV not less than 200 W-hr/m^2; for Purity change: 1 week; for Chemical purity (in words): about 1 week
From the text: (§1) The related substance in the present disclosure was detected by UPLC and the parameters are shown below.
Certain amounts of Form CSII of the present disclosure and the prior art amorphous form were weighted and stored for about 1 week, in accordance with the method of the Chinese Pharmacopoeia, under the condition that the total illumination of the light source was not less than […] and the energy of the near-ultraviolet lamp was not less than 200 W-hr/m^2, the purities of the solids before and after storage were measured by UPLC and the results are shown in Table 5.
Certain amounts of Form CSIII of the present disclosure and the prior art amorphous form were weighted and stored for about 1 week, in accordance with the method of the Chinese Pharmacopoeia, under the condition that the total illumination of the light source was not less than 1.2×10^6 lux-hr and the energy of the near-ultraviolet lamp was not less than 200 W-hr/m^2, the purities of the solids before and after storage were measured by UPLC and the results are shown in Table 12.
Certain amounts of Form CSIV of the present disclosure and the prior art amorphous form were weighted and stored for about 1 week, in accordance with the method of the Chinese Pharmacopoeia, under the condition that the total illumination of the light source was not less than 1.2×10^6 lux-hr and the energy of the near-ultraviolet lamp was not less than 200 W-hr/m^2, the purities of the solids before and after storage were measured by UPLC and the results are shown in Table 18.

[5] = Stability at high temperature (80° C., 2 days, purity by UPLC); conditions: for Chemical purity (in words) / Purity change: 2 days; for Purity change: glass vial with cap
Procedure: as §1
Certain amounts of Form CSII of the present disclosure and the prior art amorphous form were weighted and stored at 80° C. for 2 days, and the purities of the solids before and after storage were determined by UPLC, the results are as shown in Table 4.
Certain amounts of Form CSIII of the present disclosure and the prior art amorphous form were weighted and stored at 80° C. for 2 days, and the purities of the solids before and after storage were determined by UPLC, the results are as shown in Table 11.
Certain amounts of Form CSIV of the present disclosure and the prior art amorphous form were stored at 80° C. for 2 days, and the purities of the solids before and after storage were determined by UPLC, the results are as shown in Table 17.

[6] = Physical and chemical stability on storage in opened packages (purity by UPLC, solid form by XRPD)
Procedure: X-ray powder diffraction patterns in the present disclosure were acquired by a Bruker X-ray powder diffractometer. The parameters of the X-ray powder diffraction method of the present disclosure are as follows: • X-Ray: Cu, Kα • Kα1 (Å): 1.54060; Kα2 (Å): 1.54439 • Kα2/Kα1 intensity ratio: 0.50
as §1
Said “room temperature” is not a specific temperature, but a temperature range of 10-30° C. Said “open packaged” is putting the sample into a glass vial, covering the vial with aluminum foil, and punching 5-10 holes on the foil.
Form CSII of the present disclosure and the prior art amorphous form were weighed and stored under 25° C./60% RH, 40° C./75% RH and 60° C./75% RH conditions, in opened packages, respectively. The purity and solid form were determined by UPLC and XRPD. The results are listed in Table 3, and the overlaid XRPD patterns of Form CSII before and after storage for stability evaluation are shown in FIG. 4.
Form CSIII of the present disclosure and the prior art amorphous form were weighed and stored under 25° C./60% RH, 40° C./75% RH and 60° C./75% RH conditions, in opened packages, respectively. The purity and solid form were determined by UPLC and XRPD. The results are listed in Table 10, and the overlaid XRPD patterns of Form CSIII before and after storage for stability evaluation are shown in FIG. 9.
Form CSIV of the present disclosure and the prior art amorphous form were weighed and stored under 25° C./60% RH and 40° C./75% RH conditions, in opened packages, respectively. The purity and solid form were determined by UPLC and XRPD. The results are listed in Table 16, and the overlaid XRPD patterns of Form CSIV before and after storage for stability evaluation are shown in FIG. 15.

[7] = 25° C./60% RH, 6 months, open package
[8] = 40° C./75% RH, 6 months, open package
[9] = 60° C./75% RH, 1 month, open package
[10] = 25° C./60% RH, 2 months, open package
[11] = 40° C./75% RH, 2 months, open package

Compound: C=CC(=O)N1CCC[C@@H](n2c(=O)n(-c3ccc(Oc4ccccc4)cc3)c3c(N)nccc32)C1 [Form CSIII, (R)-1-(1-acryloylpiperidin-3-yl)-4-amino-3-(4-phenoxyphenyl)-1H-imidazo[4,5-c] pyridin-2(3H)-one]
- Crystalline state after formulation process (mixed with excipients, tableted) [1]: remained unchanged; also recorded: did not change
- Weight gain relative to that of the prior art [2]: ⅙
- Weight gain at 80% RH [2]: 0.66%
- Crystalline state after the DVS test [2]: remained unchanged
- Hygroscopicity class [2]: slightly hygroscopic
- Crystalline state after grinding [3]: remains unchanged
- Purity change [4]: +0.02%
- Chemical purity (in words) [4]: basically remained unchanged
- Time for which there is no change in the purity [4]: at least 1 week
- Time for which chemical purity remains substantially unchanged [5]: at least 2 days
- Chemical purity (in words) [5]: basically remained unchanged
- Purity change [5]: +0.04%
- Chemical purity during storage ([6]; 25° C./60% RH): above 99.9%
- Time for which the crystalline state doesn't change / form is stable ([6]; 25° C./60% RH): at least 6 months
- Purity [6, 7]: 99.93%
- Purity change [6, 7]: +0.02%
- Solid form [6, 7]: Form CSIII
- The number of the purities exceeding the qualification thresholds [6, 7]: 0
- Time for which the crystalline state doesn't change / form is stable ([6]; 40° C./75% RH): at least 6 months
- Chemical purity during storing ([6]; 40° C./75% RH and 60° C./75% RH): above 99.8%
- Purity [6, 8]: 99.91%
- Purity change [6, 8]: 0%
- Solid form [6, 8]: Form CSIII
- The number of the purities exceeding the qualification thresholds [6, 8]: 0
- Time for which the crystalline state doesn't change ([6]; 60° C./75% RH): at least 1 month
- Solid form and purity after storage ([6]; 60° C./75% RH, 1 month): remained basically unchanged
- Purity [6, 9]: 99.86%
- Purity change [6, 9]: −0.05%
- Solid form [6, 9]: Form CSIII
- The number of the purities exceeding the qualification thresholds [6, 9]: 0
- Purity ([6]; Initial): 99.91%
- Solid form ([6]; Initial): Form CSIII
- The number of the purities exceeding the qualification thresholds ([6]; Initial, ICH Q3A (R2) thresholds): 0
- Impurity content versus qualification threshold ([6]; throughout the stability investigation processes): did not exceed the qualification thresholds; also recorded: did not exceed the qualificated threshold

Compound: C=CC(=O)N1CCC[C@@H](n2c(=O)n(-c3ccc(Oc4ccccc4)cc3)c3c(N)nccc32)C1 [Form CSIV, (R)-1-(1-acryloylpiperidin-3-yl)-4-amino-3-(4-phenoxyphenyl)-1H-imidazo[4,5-c] pyridin-2(3H)-one]
- Crystalline state after formulation process (mixed with excipients, tableted) [1]: remained unchanged; also recorded: did not change
- Weight gain relative to that of the prior art [2]: 1/15
- Weight gain at 80% RH [2]: 0.24%
- Crystalline state after the DVS test [2]: remained unchanged
- Hygroscopicity class [2]: slightly hygroscopic
- Crystalline state after grinding [3]: remains unchanged
- Purity change [4]: +0.06%
- Chemical purity (in words) [4]: basically remained unchanged
- Chemical purity (in words) [5]: basically remained unchanged
- Purity change [5]: +0.03%
- Chemical purity during storage ([6]; 25° C./60% RH): above 99.7%
- Time for which the crystalline state doesn't change / form is stable ([6]; 25° C./60% RH): at least 2 months
- Purity [6, 10]: 99.74%
- Purity change [6, 10]: 0.00%
- Solid form [6, 10]: Form CSIV
- Time for which the crystalline state doesn't change / form is stable ([6]; 40° C./75% RH): at least 2 months
- Purity [6, 11]: 99.75%
- Purity change [6, 11]: +0.01%
- Solid form [6, 11]: Form CSIV
- Purity ([6]; Initial): 99.74%
- Solid form ([6]; Initial): Form CSIV
